{"source": "patent US5547962A", "about": "“5-amino-8-methyl-7-pyrrolidinylquinoline-3-carboxylic acid derivative” (priority 1993, dated 1996)", "key": {"[1]": {"test_system": "CHL cells", "experiment": "Chromosomal aberration test with a Chinese hamster lung cell line (CHL)", "format": "cell-based", "conditions": "CHL cells, 100 μg/ml", "experimental": "The chromosomal aberration test was conducted with a Chinese hamster lung cell line (CHL). 2-(2-Furyl)-3-(5-nitro-2-furyl)acrylamide was used as a positive control. Cells treated with the test compounds were cultured for 6 h at 37° C. in 5% CO2 -humidified air. Following the 6 h treatment the cells were washed. Fresh medium was added to the washed cells and they were cultured for a further 18 h. Colcemide was added to the cultures 2 h before the fixation of chromosome preparation, in order to collect metaphase cells."}, "[2]": {"test_system": "E. faecalis HPC948", "experiment": "Antibacterial activity, MIC by agar dilution", "format": "cell-based", "conditions": "Enterococcus faecalis, clinically isolated strain, gram +", "text": "(§1) The strains employed were as follows:\n(§2) Enterococcus faecalis (E. faecalis)"}, "[3]": {"test_system": "E. faecalis HPC984", "experiment": "Antibacterial activity, MIC by agar dilution", "format": "cell-based", "conditions": "Enterococcus faecalis, clinically isolated strain, gram +", "text": "as §1, §2"}, "[4]": {"test_system": "E. faecalis HPC975", "experiment": "Antibacterial activity, MIC by agar dilution", "format": "cell-based", "conditions": "Enterococcus faecalis, clinically isolated strain, gram +", "text": "as §1, §2"}, "[5]": {"test_system": "A. calcoaceticus HNR939", "experiment": "Antibacterial activity, MIC by agar dilution", "format": "cell-based", "conditions": "Acinetobacter calcoaceticus, clinically isolated strain, gram -", "text": "as §1\n(§3) Acinetobacter calcoaceticus (A. calcoaceticus)"}, "[6]": {"test_system": "A. calcoaceticus HNR916", "experiment": "Antibacterial activity, MIC by agar dilution", "format": "cell-based", "conditions": "Acinetobacter calcoaceticus, clinically isolated strain, gram -", "text": "as §1, §3"}, "[7]": {"test_system": "A. calcoaceticus HNR904", "experiment": "Antibacterial activity, MIC by agar dilution", "format": "cell-based", "conditions": "Acinetobacter calcoaceticus, clinically isolated strain, gram -", "text": "as §1, §3"}, "[8]": {"test_system": "E. coli NIHJ JC-2", "experiment": "Antibacterial activity, MIC by agar dilution", "format": "cell-based", "conditions": "Escherichia coli, NIHJJC2; laboratory standard strain, gram -", "text": "as §1\nEscherichia coli (E. coli)"}, "[9]": {"test_system": "K. pneumoniae PCI-602", "experiment": "Antibacterial activity, MIC by agar dilution", "format": "cell-based", "conditions": "Klebsiella pneumoniae, PCI602; laboratory standard strain, gram -", "text": "as §1\n(§4) Klebsiella pneumoniae (K. pneumoniae)"}, "[10]": {"test_system": "K. pneumoniae HNR828", "experiment": "Antibacterial activity, MIC by agar dilution", "format": "cell-based", "conditions": "Klebsiella pneumoniae, clinically isolated strain, gram -", "text": "as §1, §4"}, "[11]": {"test_system": "K. pneumoniae HNR869", "experiment": "Antibacterial activity, MIC by agar dilution", "format": "cell-based", "conditions": "Klebsiella pneumoniae, clinically isolated strain, gram -", "text": "as §1, §4"}, "[12]": {"test_system": "K. pneumoniae HNR858", "experiment": "Antibacterial activity, MIC by agar dilution", "format": "cell-based", "conditions": "Klebsiella pneumoniae, clinically isolated strain, gram -", "text": "as §1, §4"}, "[13]": {"test_system": "S. aureus HPC292", "experiment": "Antibacterial activity, MIC by agar dilution", "format": "cell-based", "conditions": "Staphylococcus aureus, clinically isolated strain, gram +", "text": "as §1\n(§5) Staphylococcus aureus (S. aureus)"}, "[14]": {"test_system": "S. aureus HPC527", "experiment": "Antibacterial activity, MIC by agar dilution", "format": "cell-based", "conditions": "Staphylococcus aureus, clinically isolated strain, gram +", "text": "as §1, §5"}, "[15]": {"test_system": "S. aureus FDA 209P JC-1", "experiment": "Antibacterial activity, MIC by agar dilution", "format": "cell-based", "conditions": "Staphylococcus aureus, FDA209P; laboratory standard strain, gram +", "text": "as §1, §5"}, "[16]": {"test_system": "S. aureus HPC308", "experiment": "Antibacterial activity, MIC by agar dilution", "format": "cell-based", "conditions": "Staphylococcus aureus, clinically isolated strain, gram +", "text": "as §1, §5"}, "[17]": {"test_system": "S. marcescens HNR1767", "experiment": "Antibacterial activity, MIC by agar dilution", "format": "cell-based", "conditions": "Serratia marcescens, clinically isolated strain, gram -", "text": "as §1\n(§6) Serratia marcescens (S. marcescens)"}, "[18]": {"test_system": "S. marcescens IAM 1184", "experiment": "Antibacterial activity, MIC by agar dilution", "format": "cell-based", "conditions": "Serratia marcescens, IAM1184; laboratory standard strain, gram -", "text": "as §1, §6"}, "[19]": {"test_system": "S. marcescens HNR1544", "experiment": "Antibacterial activity, MIC by agar dilution", "format": "cell-based", "conditions": "Serratia marcescens, clinically isolated strain, gram -", "text": "as §1, §6"}, "[20]": {"test_system": "S. marcescens HNR1792", "experiment": "Antibacterial activity, MIC by agar dilution", "format": "cell-based", "conditions": "Serratia marcescens, clinically isolated strain, gram -", "text": "as §1, §6"}, "[21]": {"test_system": "E. cloacae 963", "experiment": "Antibacterial activity, MIC by agar dilution", "format": "cell-based", "conditions": "Enterobacter cloacae, laboratory standard strain, gram -", "text": "as §1\n(§7) Enterobacter cloacae (E. cloacae)"}, "[22]": {"test_system": "E. cloacae HNR1941", "experiment": "Antibacterial activity, MIC by agar dilution", "format": "cell-based", "conditions": "Enterobacter cloacae, clinically isolated strain, gram -", "text": "as §1, §7"}, "[23]": {"test_system": "E. cloacae HNR1946", "experiment": "Antibacterial activity, MIC by agar dilution", "format": "cell-based", "conditions": "Enterobacter cloacae, clinically isolated strain, gram -", "text": "as §1, §7"}, "[24]": {"test_system": "E. cloacae HNR1939", "experiment": "Antibacterial activity, MIC by agar dilution", "format": "cell-based", "conditions": "Enterobacter cloacae, clinically isolated strain, gram -", "text": "as §1, §7"}, "[25]": {"test_system": "polychromatic erythrocytes (PCEs)", "experiment": "Micronucleus test, bone marrow of mice", "format": "in vivo, BDF 1 mice", "conditions": "percent of the number of MNPCEs per 1,000 PCEs; 250 mg/kg i.p., 24 h", "experimental": "Nine-week-old male BDF 1 mice were used in this test. The test compounds were injected intraperitoneally with a dose of 250 mg/kg. After 24 h mice were sacrificed and the bone marrow of the femur was collected. Bone marrow smears were fixed on the slides with methanol and stained with Giemsa according to the usual method. For each animal, the number of micronucleated polychromatic erythrocytes (MNPCEs) per 1,000 polychromatic erythrocytes (PCEs) was counted under the microscope. Cyclophosphamide was used as a positive control."}, "[26]": {"test_system": "Male Wistar rats", "experiment": "Convulsions, intracerebroventricular (i.c.v.) administration with fenbufen", "format": "in vivo, rat", "conditions": "20 μg i.c.v.; for Convulsions i.c.v.: number of animals with convulsions/number of animals tested: fenbufen 50 mg/kg i.p.", "experimental": "Male Wistar rats weighing 180-220 g were anesthetized with sodium pentobarbital (45 mg/kg, i.p.) and fixed in a stereotaxic apparatus. For the intracerebroventricular injection, a 0.6 mm diameter stainless steel guide cannula was implanted in each rat, being positioned 1.5 mm above the left lateral cerebroventricle (A: 6.2, R: 1.0, H: +1.0), according to the atlas of De Groot (1959). The guide cannula was fixed with dental cement on the skull and it was closed with a 0.3 mm diameter stainless steel stylet. To prevent infection, 10,000 units of potassium penicillin G were injected intramuscularly. The rats were allowed a few days to recover from the surgery.\nFor the measurement of convulsions, 30 min after intraperitoneal injection of 50 mg/kg of fenbufen, 20 μg of the test compounds was given through a 0.3 mm diameter of stainless steel cannula with a polyethylene catheter, which was 1.5 mm longer than the guide cannula in order to be inserted into the […] cerebroventricle (H: +1.0). […] The position of the intracerebroventricular cannula was confirmed by the injection of 10 μl of 1% evans blue followed by sectioning of the brain of each rat which had been used in the experiment."}, "[27]": {"test_system": "male ICR mice", "experiment": "Convulsions, intraperitoneal (i.p.) administration with fenbufen", "conditions": "for Convulsions i.p.: number of animals with convulsions/number of animals tested: 100 mg/kg i.p., fenbufen 100 mg/kg orally", "method": "Thirty minutes later, they were injected intraperitoneally with the test compounds at a dose of 100 mg/kg. Thereafter, the onset of convulsions was recorded."}, "[28]": {"test_system": "Male Hartley guinea pigs", "format": "in vivo", "conditions": "10 mg/kg i.v., UVA 90 minutes, 24 h after irradiation", "experimental": "Male Hartley guinea pigs were intravenously administered test compounds at a dose of 10 mg/kg, and immediately exposed to UVA on their backs for 90 minutes."}}, "note": "Counter-ions that a name gives are not always drawn.", "data": [{"smiles": "N[C@H]1CCN(c2cc3c(cc2F)c(=O)c(C(=O)O)cn3C2CC2)C1", "note": "[Reference Compound D, 7-((S)-3-amino-1-pyrrolidinyl)-1-cyclopropyl-6-fluoro-1,4-dihydro-4-oxoquinoline-3-carboxylic acid]", "values": [{"measurement": "Chromosomal aberration", "setting": "[1]; Table 1", "value": "- (<10%)"}, {"measurement": "Chromosomal aberration", "setting": "[1]; Table 2", "value": "- (<10%)"}]}, {"smiles": "Cc1c(N2C[C@@H](N)C(C)(C)C2)c(F)c(N)c2c(=O)c(C(=O)O)cn(C3CC3)c12", "note": "[Example 16, 5-Amino-7-((S)-3-amino-4,4-dimethyl-1-pyrrolidinyl)-1-cyclopropyl-6-fluoro-1,4-dihydro-8-methyl-4-oxoquinoline-3-carboxylic acid]", "values": [{"measurement": "MIC", "setting": "[2]", "value": 0.39, "unit": "µg/mL"}, {"measurement": "MIC", "setting": "[3]", "value": 0.2, "unit": "µg/mL"}, {"measurement": "MIC", "setting": "[4]", "value": 1.56, "unit": "µg/mL"}, {"measurement": "MIC", "setting": "[5]", "value": 0.39, "unit": "µg/mL"}, {"measurement": "MIC", "setting": "[6]", "value": 0.025, "unit": "µg/mL"}, {"measurement": "MIC", "setting": "[7]", "value": 6.25, "unit": "µg/mL"}, {"measurement": "MIC", "setting": "[8]", "value": 0.05, "unit": "µg/mL"}, {"measurement": "MIC", "setting": "[9]", "value": 0.003, "unit": "µg/mL"}, {"measurement": "MIC", "setting": "[10]", "value": 12.5, "unit": "µg/mL"}, {"measurement": "MIC", "setting": "[11]", "value": 3.13, "unit": "µg/mL"}, {"measurement": "MIC", "setting": "[12]", "value": 0.39, "unit": "µg/mL"}, {"measurement": "MIC", "setting": "[13]", "value": 1.56, "unit": "µg/mL"}, {"measurement": "MIC", "setting": "[14]", "value": 0.025, "unit": "µg/mL"}, {"measurement": "MIC", "setting": "[15]", "value": 0.025, "unit": "µg/mL"}, {"measurement": "MIC", "setting": "[16]", "value": 0.39, "unit": "µg/mL"}, {"measurement": "MIC", "setting": "[17]", "value": 25, "unit": "µg/mL"}, {"measurement": "MIC", "setting": "[18]", "value": 0.39, "unit": "µg/mL"}, {"measurement": "MIC", "setting": "[19]", "value": 0.1, "unit": "µg/mL"}, {"measurement": "MIC", "setting": "[20]", "value": 6.25, "unit": "µg/mL"}, {"measurement": "MIC", "setting": "[21]", "value": 0.05, "unit": "µg/mL"}, {"measurement": "MIC", "setting": "[22]", "value": 12.5, "unit": "µg/mL"}, {"measurement": "MIC", "setting": "[23]", "value": 0.39, "unit": "µg/mL"}, {"measurement": "MIC", "setting": "[24]", "value": 0.39, "unit": "µg/mL"}]}, {"smiles": "O=P1(N(CCCl)CCCl)NCCCO1", "note": "(stereo not shown) [Cyclophosphamide, reference compound]", "values": [{"measurement": "Incidence of MNPCEs", "setting": "[25]", "value": 2.9, "unit": "%"}]}, {"smiles": "O=C(O)c1cn(C2CC2)c2cc(N3CCNCC3)c(F)cc2c1=O", "note": "[Ciprofloxacin, ciprofloxacin]", "values": [{"measurement": "Frequency of chromosomal aberration", "setting": "[1]; Table 5-A", "value": "- (<10%)"}, {"measurement": "Convulsions i.c.v.: number of animals with convulsions/number of animals tested", "setting": "[26]", "value": "3/3"}, {"measurement": "Convulsions i.p.: number of animals with convulsions/number of animals tested", "setting": "[27]", "value": "3/6"}]}, {"smiles": "Cc1c(N2CCNCC2)c(F)c(N)c2c(=O)c(C(=O)O)cn(C3CC3)c12", "note": "[Reference Compound I, 5-amino-1-cyclopropyl-6-fluoro-1,4-dihydro-8-methyl-4-oxo-7-piperazinylquinoline-3-carboxylic acid hydrochloride]", "values": [{"measurement": "convulsions i.c.v., in words", "setting": "[26]; fenbufen", "value": "observed"}, {"measurement": "Convulsions i.c.v.: number of animals with convulsions/number of animals tested", "setting": "[26]", "value": "3/3"}, {"measurement": "Convulsions i.p.: number of animals with convulsions/number of animals tested", "setting": "[27]", "value": "0/6"}, {"measurement": "symptom of sedation", "setting": "[27]; i.p. convulsion test", "value": "All of mice used for the test had a symptom of sedation"}, {"measurement": "Phototoxicity: number of animals with erythemas/number of animals tested", "setting": "[28]", "value": "0/5"}]}]}
